This note sets out measurements from patent US10822348B2, “Inhibitors of Bruton's tyrosine kinase and methods of their use” (JANSSEN PHARMACEUTICA NV, priority 2015, dated 2020).

unphosphorylated-BTK kinase domain (UP-BTK), GST-tagged human BTK (389-659aa), sequence (Q06187 389-659): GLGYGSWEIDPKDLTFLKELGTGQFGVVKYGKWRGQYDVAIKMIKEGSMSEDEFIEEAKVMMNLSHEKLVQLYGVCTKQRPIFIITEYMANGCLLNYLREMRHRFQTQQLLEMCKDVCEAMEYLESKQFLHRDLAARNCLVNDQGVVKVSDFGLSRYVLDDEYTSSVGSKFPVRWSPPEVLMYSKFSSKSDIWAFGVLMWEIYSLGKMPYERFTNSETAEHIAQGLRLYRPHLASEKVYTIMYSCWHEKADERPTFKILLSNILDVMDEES

One test concerns the target unphosphorylated-BTK kinase domain (UP-BTK), GST-tagged human BTK (389-659aa) (Homo sapiens (Human), UniProt Q06187). Kind of test: BTK kinase Lanthascreen binding assay. Particulars: negative log of the IC50 in molar; 60 minutes incubation, 50 nM Tracer 236. As for the experimental part: BTK Kinase Lanthascreen Binding Assay:
A BTK kinase lanthascreen binding assay monitors compound binding to unphosphorylated-BTK kinase domain (UP-BTK), by competing with a fluorescent labeled tracer. […] Data were analyzed using Xlfit™ version 5.3 from ID Business Solutions (Guildford), Microsoft Excel add-in. pIC50 refers to the negative log of the IC50 in molar.
Turning to `Cc1cc(Oc2ccccc2)ccc1N1C(=O)Nc2c(C(=O)N[C@H]3CCCN(C)C3)sc3nccc1c23` (single isomer, unassigned) [Example 249, (S)-5-(*S)-(2-Methyl-4-phenoxyphenyl)-N-(1-methylpiperidin-3-yl)-4-oxo-4,5-dihydro-3H-1-thia-3,5,8-triazaacenaphthylene-2-carboxamide], the “BTK_I_binding pIC50” value came to 6.6.
Same read-out and setting: the figure for `Cc1cc(Oc2ccccc2)ccc1N1C(=O)Nc2c(C(=O)N[C@H]3CCCOC3)sc3nccc1c23` (single isomer, unassigned) [Example 267, (S)-5-(*R)-(2-Methyl-4-phenoxyphenyl)-4-oxo-N-(tetrahydro-2H-pyran-3-yl)-4,5-dihydro-3H-1-thia-3,5,8-triazaacenaphthylene-2-carboxamide] is 6.3.

Staying with this test, now noted: unphosphorylated-BTK kinase domain; 60 minutes incubation; pIC50 = negative log of the IC50 in molar.
For `Cc1cc(Oc2ccccc2)ccc1N1C(=O)Nc2c(C(=O)N[C@@H]3CCCN(C(=O)CN(C)C)C3)sc3nccc1c23` (single isomer, unassigned) [Example 287, (R)—N-(1-(2-(Dimethylamino)acetyl)piperidin-3-yl)-5-(*R)-(2-methyl-4-phenoxyphenyl)-4-oxo-4,5-dihydro-3H-1-thia-3,5,8-triazaacenaphthylene-2-carboxamide], the “BTK_I_binding pIC50” value is given as 6.2.
As to `C=CC(=O)N1CCC[C@H](NC(=O)c2sc3nccc4c3c2NC(=O)N4c2ccc(Oc3ccccc3)cc2C)C1` (single isomer, unassigned) [Example 289, (S)—N-(1-Acryloylpiperidin-3-yl)-5-(*R)-(2-methyl-4-phenoxyphenyl)-4-oxo-4,5-dihydro-3H-1-thia-3,5,8-triazaacenaphthylene-2-carboxamide], the “BTK_I_binding pIC50” value worked out at 6.2.
Same read-out and setting: the figure for `CNC/C=C/C(=O)N1CCC[C@@H](NC(=O)c2sc3nccc4c3c2NC(=O)N4c2ccc(Oc3ccccc3)cc2C)C1` (single isomer, unassigned) [Example 292, (R,E)-5-(*R)-(2-Methyl-4-phenoxyphenyl)-N-(1-(4-(methylamino)but-2-enoyl)piperidin-3-yl)-4-oxo-4,5-dihydro-3H-1-thia-3,5,8-triazaacenaphthylene-2-carboxamide] is 6.1; for `Cc1cc(Oc2ccccc2)ccc1N1C(=O)Nc2c(C(=O)N[C@@H]3CCCNC3)sc3nccc1c23` (single isomer, unassigned) [Example 300, (R)-5-(*R)-(2-methyl-4-phenoxyphenyl)-4-oxo-N-(piperidin-3-yl)-4,5-dihydro-3H-1-thia-3,5,8-triazaacenaphthylene-2-carboxamide] it is 6.0.
Regarding `Cc1cc(Oc2ccccc2)ccc1N1C(=O)Nc2c(C(=O)N[C@@H]3CCCOC3)sc3nccc1c23` (single isomer, unassigned) [Example 307, (R)-5-(*R)-(2-Methyl-4-phenoxyphenyl)-4-oxo-N-(tetrahydro-2H-pyran-3-yl)-4,5-dihydro-3H-1-thia-3,5,8-triazaacenaphthylene-2-carboxamide], the “BTK_I_binding pIC50” value is recorded as 6.0.
For `C=CC(=O)N1CCC[C@@H](NC(=O)c2sc3nccc4c3c2NC(=O)N4c2c(Cl)ccc3c2OCO3)C1` (single isomer, unassigned) [Example 321, (R)—N-(1-Acryloylpiperidin-3-yl)-5-(*R)-(5-chlorobenzo[d][1,3]dioxol-4-yl)-4-oxo-4,5-dihydro-3H-1-thia-3,5,8-triazaacenaphthylene-2-carboxamide], the “BTK_I_binding pIC50” value came out at 7.1.
As for `Cc1cc(Oc2ccccc2)ccc1N1C(=O)Nc2c(C(=O)N[C@@H]3CCCN(C#N)C3)sc3nccc1c23` (single isomer, unassigned) [Example 329, (R)—N-(1-Cyanopiperidin-3-yl)-5-(*R)-(2-methyl-4-phenoxyphenyl)-4-oxo-4,5-dihydro-3H-1-thia-3,5,8-triazaacenaphthylene-2-carboxamide], the “BTK_I_binding pIC50” value was found to be 5.7.
As for `Cc1cc(Oc2ccccc2)ccc1N1C(=O)Nc2c(C(=O)N[C@H]3CCCN(C)C3)sc3nccc1c23` (single isomer, unassigned) [Example 339, (S)-5-(*R)-(2-Methyl-4-phenoxyphenyl)-N-(1-methylpiperidin-3-yl)-4-oxo-4,5-dihydro-3H-1-thia-3,5,8-triazaacenaphthylene-2-carboxamide], the “BTK_I_binding pIC50” value is reported as 5.4.
As for `Cc1cc(OC2CCOCC2)ccc1N1C(=O)Nc2c(C(=O)N[C@@H]3CCCN(C)C3)sc3nccc1c23` (single isomer, unassigned) [Example 343, (R)-5-(*R)-(2-Methyl-4-((tetrahydro-2H-pyran-4-yl)oxy)phenyl)-N-(1-methylpiperidin-3-yl)-4-oxo-4,5-dihydro-3H-1-thia-3,5,8-triazaacenaphthylene-2-carboxamide], the “BTK_I_binding pIC50” value came out at 5.3.
Consider `CN1CCC[C@@H](NC(=O)c2sc3nccc4c3c2NC(=O)N4c2c(Cl)ccc3c2OCO3)C1` (single isomer, unassigned) [Example 353, (R)-5-(*R)-(5-Chlorobenzo[d][1,3]dioxol-4-yl)-N-(1-methylpiperidin-3-yl)-4-oxo-4,5-dihydro-3H-1-thia-3,5,8-triazaacenaphthylene-2-carboxamide], for which the “BTK_I_binding pIC50” value was found to be 5.8.
For `C=C(Cl)C(=O)N1CCC[C@@H](NC(=O)c2sc3nccc4c3c2NC(=O)N4c2ccc(Oc3ccccc3)cc2C)C1` (single isomer, unassigned) [Example 366, (R)—N-(1-(2-Chloroacryloyl)piperidin-3-yl)-5-(*S)-(2-methyl-4-phenoxyphenyl)-4-oxo-4,5-dihydro-3H-1-thia-3,5,8-triazaacenaphthylene-2-carboxamide], the “BTK_I_binding pIC50” value came out at 7.1.
Still for that read-out and setting: under `Cc1cc(Oc2ccccc2)ccc1N1C(=O)Nc2c(C(=O)N[C@@H]3CCCN(C(=O)/C=C/CN)C3)sc3nccc1c23` (single isomer, unassigned) [Example 367, (R,E)-N-(1-(4-Aminobut-2-enoyl)piperidin-3-yl)-5-(*R)-(2-methyl-4-phenoxyphenyl)-4-oxo-4,5-dihydro-3H-1-thia-3,5,8-triazaacenaphthylene-2-carboxamide] stands 6.2; under `C=CC(=O)N1CCC[C@@H](NC(=O)c2sc3nccc4c3c2NC(=O)N4c2ccc(OC(C)C)cc2C)C1` (single isomer, unassigned) [Example 417, (R)—N-(1-Acryloylpiperidin-3-yl)-5-(*S)-(4-isopropoxy-2-methylphenyl)-4-oxo-4,5-dihydro-3H-1-thia-3,5,8-triazaacenaphthylene-2-carboxamide], 5.9.
`C=CC(=O)N1CCC[C@@H](NC(=O)c2sc3nccc4c3c2NC(=O)N4c2ccc(OC(C)C)cc2C)C1` (single isomer, unassigned) [Example 418, (R)—N-(1-Acryloylpiperidin-3-yl)-5-(*R)-(4-isopropoxy-2-methylphenyl)-4-oxo-4,5-dihydro-3H-1-thia-3,5,8-triazaacenaphthylene-2-carboxamide]: the “BTK_I_binding pIC50” value is 7.8.
As for `CCOC(C)(C)/C=C(\C#N)C(=O)N1CCC[C@@H](NC(=O)c2sc3nccc4c3c2NC(=O)N4c2ccc(Oc3ccccc3)cc2C)C1` (single isomer, unassigned) [Example 478, (R,*E)-N-(1-(2-Cyano-4-ethoxy-4-methylpent-2-enoyl)piperidin-3-yl)-5-(*S)-(2-methyl-4-phenoxyphenyl)-4-oxo-4,5-dihydro-3H-1-thia-3,5,8-triazaacenaphthylene-2-carboxamide], the “BTK_I_binding pIC50” value was determined as 7.8.
With `CCOC(C)(C)/C=C(\C#N)C(=O)N1CCC[C@@H](NC(=O)c2sc3nccc4c3c2NC(=O)N4c2ccc(Oc3ccccc3)cc2C)C1` (single isomer, unassigned) [Example 480, (R,*E)-N-(1-(2-Cyano-4-ethoxy-4-methylpent-2-enoyl)piperidin-3-yl)-5-(*R)-(2-methyl-4-phenoxyphenyl)-4-oxo-4,5-dihydro-3H-1-thia-3,5,8-triazaacenaphthylene-2-carboxamide], the “BTK_I_binding pIC50” value stood at 7.2.
As for `CCOC(C)(C)/C=C(\C#N)C(=O)N1CCC[C@@H](NC(=O)c2sc3nccc4c3c2NC(=O)N4c2ccc(Oc3ccccc3)cc2C)C1` (single isomer, unassigned) [Example 487, (R,E)-N-(1-(2-Cyano-4-ethoxy-4-methylpent-2-enoyl)piperidin-3-yl)-5-(*S)-(2-methyl-4-phenoxyphenyl)-4-oxo-4,5-dihydro-3H-1-thia-3,5,8-triazaacenaphthylene-2-carboxamide], the “BTK_I_binding pIC50” value came to 7.6.
Same read-out and setting: the figure for `C=CC(=O)N1CCC[C@@H](NC(=O)c2sc3nccc4c3c2NC(=O)N4c2ccc(OC(F)(F)F)cc2C)C1` (single isomer, unassigned) [Example 505, (R)—N-(1-Acryloylpiperidin-3-yl)-5-(*S)-(2-methyl-4-(trifluoromethoxy)phenyl)-4-oxo-4,5-dihydro-3H-1-thia-3,5,8-triazaacenaphthylene-2-carboxamide] is 7.8; for `Cc1cc(Oc2ccccc2)ccc1N1C(=O)Nc2c(C(=O)N[C@@H]3CCCN(C(=O)/C=C/CN)C3)sc3nccc1c23` (single isomer, unassigned) [Example 511, (R,E)-N-(1-(4-Aminobut-2-enoyl)piperidin-3-yl)-5-(*S)-(2-methyl-4-phenoxyphenyl)-4-oxo-4,5-dihydro-3H-1-thia-3,5,8-triazaacenaphthylene-2-carboxamide] it is 7.8.
The same measure, in the same setting: under `Cc1cc(Oc2ccccc2)ccc1N1C(=O)Nc2c(C(=O)N[C@@H]3CCCN(C(=O)/C(C#N)=C/C4CC4)C3)sc3nccc1c23` (single isomer, unassigned) [Example 514, (R,E)-N-(1-(2-Cyano-3-cyclopropylacryloyl)piperidin-3-yl)-5-(*S)-(2-methyl-4-phenoxyphenyl)-4-oxo-4,5-dihydro-3H-1-thia-3,5,8-triazaacenaphthylene-2-carboxamide] stands 7.7.
